Data on 12 compounds can be found in PubChem BioAssay (NCI).

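Assay format: 96-well plates, 48-hour exposure. At the GI50, growth is halved. Definition used: TGI = concentration required for complete inhibition of growth.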

Among the test systems are HOP-62 NSCLC; SK-MEL-2 melanoma; M14 melanoma; U251 CNS; RPMI-8226 leukemia; NCI-H522 lung; OVCAR-8 ovarian; NCI-H23 lung; HT29 colon; A498 renal.
Common to all, as to experiment: NCI-60 cell line screen, 48 h

Consider `N#Cc1nc(-c2cccc(Br)c2)cc(-c2ccc(Nc3nc(N4CCCCC4)nc(N4CCCCC4)n3)cc2)c1N`, for which the GI50 in the test on HOP-62 NSCLC was 2.64 µM; in the test with SK-MEL-2 melanoma, 2.09 µM; with M14 melanoma, 2.84 µM; with U251 CNS, 1.72 µM; with RPMI-8226 leukemia, 2.19 µM; in the test on NCI-H522 lung, 1.78 µM. The GI50 with OVCAR-8 ovarian is 2.66 µM; in the test with NCI-H23 lung it was 2.39 µM; in the test with HT29 colon, 1.22 µM. The TGI with HOP-62 NSCLC was 8.76 µM; with SK-MEL-2 melanoma, 4.61 µM; in the test with M14 melanoma it was 7.5 µM; with U251 CNS it was 3.38 µM; in the test with RPMI-8226 leukemia, 24 µM; in the test on NCI-H522 lung, 4.72 µM. Moreover, the TGI in the test on OVCAR-8 ovarian is over 100 µM; in the test on NCI-H23 lung, 8.33 µM; in the test with HT29 colon, 4.09 µM.
Turning to `Clc1nc(Cl)c2ncn(C/C=C\Cn3cnc4c(Cl)nc(Cl)nc43)c2n1`, the GI50 in the test on HOP-62 NSCLC is 1.74 µM; in the test with SK-MEL-2 melanoma, 1.75 µM; in the test with M14 melanoma it was 2.15 µM; in the test on U251 CNS it was 3.5 µM; in the test on NCI-H522 lung, 1.76 µM; in the test on A498 renal, 1.51 µM. In addition, the GI50 in the test on OVCAR-8 ovarian was 2.02 µM; in the test with NCI-H23 lung, 2.09 µM; in the test with HT29 colon, 1.69 µM. The TGI in the test on HOP-62 NSCLC was found to be 4.71 µM; with SK-MEL-2 melanoma, 3.66 µM; with M14 melanoma, 4.19 µM; in the test with U251 CNS, 10.6 µM; in the test on NCI-H522 lung it was 4.02 µM; in the test with A498 renal, 3.23 µM. In addition, the TGI amounted to 6.39 µM with OVCAR-8 ovarian, 5.11 µM in the test with NCI-H23 lung and 3.35 µM with HT29 colon.
For `Cc1cc2c(cn1)C(=O)OCC2`, the TGI with HOP-62 NSCLC, with M14 melanoma, in the test with U251 CNS, with RPMI-8226 leukemia, with A498 renal and in the test on OVCAR-8 ovarian was over 100 µM in each case. Besides, the TGI in the test with NCI-H23 lung and in the test with HT29 colon was over 100 µM each time.
Consider `COc1ccc(C2(CN(C)C)COc3cc(OC)c(OC)cc3C2=O)cc1OC` (stereo unspecified), for which the TGI with HOP-62 NSCLC was over 100 µM; in the test on M14 melanoma, over 100 µM; in the test with U251 CNS, over 100 µM; in the test with RPMI-8226 leukemia, 63.4 µM; in the test with NCI-H522 lung, over 100 µM; with A498 renal, over 100 µM. Further, the TGI in the test with OVCAR-8 ovarian is over 100 µM; in the test with NCI-H23 lung, 94.4 µM; in the test on HT29 colon, over 100 µM.
On to `OCCN(CO)CN(CN(CO)CCO)c1nc(N(CN(CO)CCO)CN(CO)CCO)nc(N(CN(CO)CCO)CN(CO)CCO)n1`, for which the GI50 with HOP-62 NSCLC is 1.47 ng/mL; in the test on M14 melanoma, 1.21 ng/mL; in the test on RPMI-8226 leukemia, 0.55 ng/mL; in the test on OVCAR-8 ovarian it was 1.54 ng/mL; in the test with NCI-H23 lung it was 1.57 ng/mL; in the test with HT29 colon, 0.911 ng/mL. Besides, the TGI in the test with HOP-62 NSCLC came to 4.38 ng/mL; with M14 melanoma, 2.91 ng/mL; with RPMI-8226 leukemia it was 0.55 ng/mL; in the test on OVCAR-8 ovarian, 5500 ng/mL; with NCI-H23 lung it was 5.24 ng/mL; in the test with HT29 colon, 15.2 ng/mL.
`CCCCCCn1c(-c2ccc(C(=O)O/N=C(\N)c3ccc(OC)cc3)cc2)nc(-c2ccccc2)c1-c1ccccc1`: the GI50 with HOP-62 NSCLC was 1.9 µM; in the test on SK-MEL-2 melanoma it was 2.93 µM; in the test on U251 CNS it was 1.62 µM; with RPMI-8226 leukemia, 1.42 µM; in the test with NCI-H522 lung, 1.74 µM; with OVCAR-8 ovarian, 2.21 µM. Besides, the GI50 in the test with NCI-H23 lung is 1.31 µM; with HT29 colon, 2.67 µM. The TGI in the test on HOP-62 NSCLC was found to be 4.66 µM; in the test on SK-MEL-2 melanoma it was 9.46 µM; with U251 CNS, 4.21 µM; with RPMI-8226 leukemia, 3.9 µM; in the test with NCI-H522 lung, 3.72 µM; with OVCAR-8 ovarian it was 6.47 µM. Moreover, the figures for the TGI in the test with NCI-H23 lung and in the test on HT29 colon were 2.93 µM and over 100 µM, respectively.
As for `CCCCCC(=O)N1c2ccccc2NC2=C(C(=O)CC(c3ccc(OC)c(OC)c3)C2)C1c1ccc(C(F)(F)F)cc1` (stereo unspecified), the GI50 with HOP-62 NSCLC is over 100 µM; in the test with SK-MEL-2 melanoma, over 100 µM; in the test with U251 CNS, over 100 µM; in the test on RPMI-8226 leukemia it was 5.98 µM; with NCI-H522 lung it was 70.8 µM; in the test with OVCAR-8 ovarian, over 100 µM. Moreover, the GI50 with NCI-H23 lung and in the test on HT29 colon was over 100 µM in each case. For the same compound, the TGI in the test with HOP-62 NSCLC, in the test with SK-MEL-2 melanoma, in the test on U251 CNS, in the test on RPMI-8226 leukemia, in the test on NCI-H522 lung and in the test with OVCAR-8 ovarian was over 100 µM in each case. The TGI in the test on NCI-H23 lung and in the test on HT29 colon was over 100 µM each time.
For the compound `O=C(CC(=O)Nc1ccc(Cl)cc1)NNCC(=O)Nc1nc(-c2ccccc2)cs1`, the TGI in the test on HOP-62 NSCLC, with M14 melanoma, in the test with U251 CNS, in the test on RPMI-8226 leukemia, in the test on NCI-H522 lung and with OVCAR-8 ovarian was over 100 µM throughout. Also, the TGI in the test with NCI-H23 lung and with HT29 colon was over 100 µM in each case.
With `CCCCCCCCCCCCCCCCC(C(=O)O)C(O)(CC(=O)O)C(=O)O` (stereo unspecified), the TGI in the test with HOP-62 NSCLC stood at 34.1 µM; with SK-MEL-2 melanoma, 41.4 µM; in the test on M14 melanoma, 47.7 µM; with U251 CNS, 33.1 µM; in the test with RPMI-8226 leukemia, 74.8 µM; with A498 renal it was 47.6 µM. For the same compound, the figures for the TGI with OVCAR-8 ovarian, in the test on NCI-H23 lung and in the test on HT29 colon were over 100 µM, 64.6 µM and 45.4 µM, respectively.
On to `Cc1cccc(C(C)O)n1` (stereo unspecified), for which the TGI in the test with HOP-62 NSCLC, with SK-MEL-2 melanoma, with M14 melanoma, in the test on U251 CNS, with NCI-H522 lung and in the test on A498 renal was over 100 µM in each case. In addition, the TGI in the test on OVCAR-8 ovarian, with NCI-H23 lung and in the test on HT29 colon was over 100 µM throughout.
As for `CC1CCC2(OC1)OC1CC3C4CC=C5CC(OC6OC(CO)C(OC7OC(C)C(OC8OC(C)C(O)C(O)C8O)C(O)C7O)C(O)C6OC6OC(C)C(O)C(O)C6O)CCC5(C)C4CCC3(C)C1C2C` (stereo unspecified), the TGI in the test on HOP-62 NSCLC is over 100 µM; in the test with SK-MEL-2 melanoma, 2.5 µM; in the test with M14 melanoma it was 2.27 µM; in the test with U251 CNS, 1.96 µM; in the test with NCI-H522 lung, 2.17 µM; in the test with A498 renal it was 1.55 µM. The TGI with OVCAR-8 ovarian was 1.59 µM; in the test on NCI-H23 lung, 3.13 µM; in the test on HT29 colon, 2.2 µM.
Turning to `CC(=O)/C=C1/c2ccccc2N(C(C)=O)C1O` (stereo unspecified), the TGI with HOP-62 NSCLC, with SK-MEL-2 melanoma, in the test with M14 melanoma, in the test with U251 CNS, in the test on RPMI-8226 leukemia and in the test on A498 renal was over 100 µM in each case. The TGI with OVCAR-8 ovarian, in the test on NCI-H23 lung and in the test on HT29 colon was over 100 µM in each case.
